Consider five compounds from PubChem BioAssay AID250 (DTP/NCI, 2004).

This assay deals with BDF1 mice, L1210 leukemia sc, survival T/C. Nature of the assay: NCI In Vivo Anticancer Drug Screen. Data for tumor model L1210 Leukemia (subcutaneous) in B6D2F1 (BDF1) mice. Particulars: higher = longer survival. Summed up:
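Mice carrying transplanted tumors received test compounds, and survival or tumor size was measured. Values are the treated-group measurement (T) divided by that of the vehicle-treated control group (C).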

[1] abbreviates: endpoint: median survival time, dose: 1.08 mg/kg/injection, schedule: Q01DX Z (sc), vehicle: saline.
Where [2] appears, read: endpoint: median survival time, dose: 1.8 mg/kg/injection, schedule: Q01DX Z (sc), vehicle: saline.
Setting [3] is: endpoint: median survival time, dose: 3.0 mg/kg/injection, schedule: Q01DX Z (sc), vehicle: saline.
Where [4] appears, read: endpoint: median survival time, dose: 8.4 mg/kg/injection, schedule: Q01DX Z (sc), vehicle: saline.
Setting [5] is: endpoint: median survival time, dose: 14.0 mg/kg/injection, schedule: Q01DX Z (sc), vehicle: saline.
Setting [6] is: endpoint: median survival time, dose: 23.0 mg/kg/injection, schedule: Q01DX Z (sc), vehicle: saline.

“And” between values parts separate entries of the source, which are not always exact repeats. Equal entries are not always repeated. Toxic doses and inconclusive results are not listed.

Regarding `CCN(CC)P(=O)(N1CC1)N1CC1`, the T/C was 100 % of control under setting [1]; 100 % of control under setting [2]; 110 % of control under setting [3]; 115 % of control (endpoint: median survival time, dose: 5.0 mg/kg/injection, schedule: Q01DX Z (sc), vehicle: saline); 170 % of control and 194 % of control under setting [4]; 150 % of control and 183 % of control under setting [5]. The T/C under setting [6] is 155 % of control; the T/C (endpoint: median survival time, dose: 39.0 mg/kg/injection, schedule: Q01DX Z (sc), vehicle: saline) is 111 % of control; the T/C (endpoint: median survival time, dose: 65.0 mg/kg/injection, schedule: Q01DX Z (sc), vehicle: saline) was 111 % of control; the T/C (endpoint: median survival time, dose: 108.0 mg/kg/injection, schedule: Q01DX Z (sc), vehicle: saline) was 100 % of control.
For `CO[C@@]12[C@H](COC(N)=O)C3=C(C(=O)C(C)=C(N)C3=O)N1C[C@@H]1N[C@@H]12`, the T/C by setting is: (endpoint: median survival time, dose: 0.1 mg/kg/injection, schedule: Q01DX Z (sc), vehicle: saline) 95 % of control; (endpoint: median survival time, dose: 0.17 mg/kg/injection, schedule: Q01DX Z (sc), vehicle: saline) 100 % of control; (endpoint: median survival time, dose: 0.28 mg/kg/injection, schedule: Q01DX Z (sc), vehicle: saline) 100 % of control; (endpoint: median survival time, dose: 0.47 mg/kg/injection, schedule: Q01DX Z (sc), vehicle: saline) 91 % of control; (endpoint: median survival time, dose: 0.79 mg/kg/injection, schedule: Q01DX Z (sc), vehicle: saline) 100 % of control; (endpoint: median survival time, dose: 1.0 mg/kg/injection, schedule: Q01DX009 (ip), vehicle: water) 110 % of control. For the same compound, the T/C reads like this: (endpoint: median survival time, dose: 1.0 mg/kg/injection, schedule: Q01DX009 (sc), vehicle: water) 101 % of control; under setting [1], 100 % of control; (endpoint: median survival time, dose: 1.3 mg/kg/injection, schedule: Q01DX Z (sc), vehicle: other) 104 % of control; (endpoint: median survival time, dose: 1.3 mg/kg/injection, schedule: Q01DX Z (sc), vehicle: saline) 104 % of control; (endpoint: median survival time, dose: 1.31 mg/kg/injection, schedule: Q01DX Z (sc), vehicle: saline) 95 % of control; under setting [2], 100 % of control. Also, the T/C is 100 % of control (endpoint: median survival time, dose: 1.8 mg/kg/injection, schedule: Q02DX Z (sc), vehicle: saline); 110 % of control (endpoint: median survival time, dose: 2.0 mg/kg/injection, schedule: Q01DX009 (ip), vehicle: water); 110 % of control and 118 % of control (endpoint: median survival time, dose: 2.0 mg/kg/injection, schedule: Q01DX009 (sc), vehicle: water); 100 % of control (endpoint: median survival time, dose: 2.16 mg/kg/injection, schedule: Q01DX Z (sc), vehicle: other); 109 % of control (endpoint: median survival time, dose: 2.16 mg/kg/injection, schedule: Q01DX Z (sc), vehicle: saline); 100 % of control (endpoint: median survival time, dose: 2.18 mg/kg/injection, schedule: Q01DX Z (sc), vehicle: saline). Moreover, the T/C was 109 % of control under setting [3]; 109 % of control (endpoint: median survival time, dose: 3.0 mg/kg/injection, schedule: Q02DX Z (sc), vehicle: saline); 104 % of control (endpoint: median survival time, dose: 3.0 mg/kg/injection, schedule: Q## X Z (sc), vehicle: saline); 109 % of control (endpoint: median survival time, dose: 3.6 mg/kg/injection, schedule: Q01DX Z (sc), vehicle: other); 113 % of control (endpoint: median survival time, dose: 3.6 mg/kg/injection, schedule: Q01DX Z (sc), vehicle: saline); 92 % of control (endpoint: median survival time, dose: 4.0 mg/kg/injection, schedule: Q01DX009 (ip), vehicle: water). Besides, the T/C was 98 % of control and 121 % of control (endpoint: median survival time, dose: 4.0 mg/kg/injection, schedule: Q01DX009 (sc), vehicle: water); 109 % of control (endpoint: median survival time, dose: 5.0 mg/kg/injection, schedule: Q01DX001 (sc), vehicle: saline); 118 % of control (endpoint: median survival time, dose: 5.0 mg/kg/injection, schedule: Q02DX Z (sc), vehicle: saline); 109 % of control (endpoint: median survival time, dose: 5.0 mg/kg/injection, schedule: Q## X Z (sc), vehicle: saline); 113 % of control (endpoint: median survival time, dose: 6.0 mg/kg/injection, schedule: Q01DX Z (sc), vehicle: other); 118 % of control (endpoint: median survival time, dose: 6.0 mg/kg/injection, schedule: Q01DX Z (sc), vehicle: saline). In addition, the T/C is 116 % of control (endpoint: median survival time, dose: 6.06 mg/kg/injection, schedule: Q01DX Z (sc), vehicle: saline); 108 % of control (endpoint: median survival time, dose: 8.0 mg/kg/injection, schedule: Q01DX009 (sc), vehicle: water); 113 % of control (endpoint: median survival time, dose: 8.4 mg/kg/injection, schedule: Q01DX001 (sc), vehicle: saline); 118 % of control under setting [4]; 122 % of control (endpoint: median survival time, dose: 8.4 mg/kg/injection, schedule: Q## X Z (sc), vehicle: saline); 109 % of control (endpoint: median survival time, dose: 10.0 mg/kg/injection, schedule: Q01DX Z (sc), vehicle: other). The T/C runs as follows: (endpoint: median survival time, dose: 10.0 mg/kg/injection, schedule: Q01DX Z (sc), vehicle: saline) 100 % of control; under setting [5], 109 % of control; (endpoint: median survival time, dose: 14.0 mg/kg/injection, schedule: Q02DX Z (sc), vehicle: saline) 118 % of control; (endpoint: median survival time, dose: 16.0 mg/kg/injection, schedule: Q01DX009 (sc), vehicle: water) 97 % of control; (endpoint: median survival time, dose: 23.0 mg/kg/injection, schedule: Q01DX001 (sc), vehicle: saline) 118 % of control; under setting [6], 109 % of control. In addition, the T/C reads like this: (endpoint: median survival time, dose: 23.0 mg/kg/injection, schedule: Q02DX Z (sc), vehicle: saline) 118 % of control; (endpoint: median survival time, dose: 23.0 mg/kg/injection, schedule: Q## X Z (sc), vehicle: saline) 118 % of control; (endpoint: median survival time, dose: 39.0 mg/kg/injection, schedule: Q01DX001 (sc), vehicle: saline) 118 % of control; (endpoint: median survival time, dose: 39.0 mg/kg/injection, schedule: Q02DX Z (sc), vehicle: saline) 122 % of control; (endpoint: median survival time, dose: 39.0 mg/kg/injection, schedule: Q## X Z (sc), vehicle: saline) 118 % of control; (endpoint: median survival time, dose: 65.0 mg/kg/injection, schedule: Q01DX001 (sc), vehicle: saline) 109 % of control.
With `CS(=O)(=O)Nc1ccc(Nc2c3ccccc3nc3cc(Cl)ccc23)cc1`, the T/C reads like this: (endpoint: mean survival time, dose: 10.0 mg/kg/injection, schedule: Q01DX009 (sc), vehicle: saline) 104 % of control; (endpoint: mean survival time, dose: 20.0 mg/kg/injection, schedule: Q01DX009 (sc), vehicle: saline) 112 % of control; (endpoint: mean survival time, dose: 40.0 mg/kg/injection, schedule: Q01DX009 (sc), vehicle: saline) 113 % of control; (endpoint: mean survival time, dose: 80.0 mg/kg/injection, schedule: Q01DX009 (sc), vehicle: saline) 124 % of control.
For `Nc1nc(N)c2cc(CNc3ccc(C(=O)NC(CC(=O)O)C(=O)O)cc3)ccc2n1` (stereo unspecified), the T/C (endpoint: median survival time, dose: 0.78 mg/kg/injection, schedule: Q01DX Z (sc), vehicle: saline) is 216 % of control; the T/C (endpoint: median survival time, dose: 1.56 mg/kg/injection, schedule: Q01DX Z (sc), vehicle: saline) was 200 % of control; the T/C (endpoint: median survival time, dose: 3.12 mg/kg/injection, schedule: Q01DX Z (sc), vehicle: saline) was 150 % of control; the T/C (endpoint: median survival time, dose: 6.25 mg/kg/injection, schedule: Q01DX Z (sc), vehicle: saline) is 122 % of control; the T/C (endpoint: median survival time, dose: 6.3 mg/kg/injection, schedule: Q01DX001 (sc), vehicle: saline) is 122 % of control; the T/C (endpoint: median survival time, dose: 12.5 mg/kg/injection, schedule: Q01DX001 (sc), vehicle: saline) was 116 % of control. Further, the T/C is, setting by setting: (endpoint: median survival time, dose: 12.5 mg/kg/injection, schedule: Q01DX Z (sc), vehicle: saline) 111 % of control; (endpoint: median survival time, dose: 25.0 mg/kg/injection, schedule: Q01DX Z (sc), vehicle: saline) 100 % of control; (endpoint: median survival time, dose: 50.0 mg/kg/injection, schedule: Q01DX001 (sc), vehicle: saline) 166 % of control.
Take `CCCCNc1ncnc2c1cnn2C`: the T/C by setting is: (endpoint: median survival time, dose: 23.3 mg/kg/injection, schedule: Q01DX Z (sc), vehicle: methylcellulose (MC)) 105 % of control; (endpoint: median survival time, dose: 38.9 mg/kg/injection, schedule: Q01DX Z (sc), vehicle: methylcellulose (MC)) 110 % of control; (endpoint: median survival time, dose: 64.8 mg/kg/injection, schedule: Q01DX Z (sc), vehicle: methylcellulose (MC)) 110 % of control; (endpoint: median survival time, dose: 108.0 mg/kg/injection, schedule: Q01DX Z (sc), vehicle: methylcellulose (MC)) 110 % of control; (endpoint: median survival time, dose: 180.0 mg/kg/injection, schedule: Q01DX Z (sc), vehicle: methylcellulose (MC)) 100 % of control.
